One test deals with T1, rat PPARδ (Rattus norvegicus, UniProt Q62879).
T1 construct: expressed in transfected cells; host or cells: CV-1
T1 sequence (Q62879 139-440 limits assumed): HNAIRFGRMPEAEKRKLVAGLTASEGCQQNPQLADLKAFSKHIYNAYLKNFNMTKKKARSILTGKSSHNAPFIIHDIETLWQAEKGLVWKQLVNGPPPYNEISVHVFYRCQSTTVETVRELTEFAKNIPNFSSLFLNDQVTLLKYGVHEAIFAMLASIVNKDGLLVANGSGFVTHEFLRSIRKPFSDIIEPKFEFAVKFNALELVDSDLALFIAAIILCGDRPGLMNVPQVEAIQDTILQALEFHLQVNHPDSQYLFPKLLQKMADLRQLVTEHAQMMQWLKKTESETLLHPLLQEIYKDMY
The experiment in a line: GAL4-PPAR chimera transactivation assay in CV-1 cells at 10% or 0.1% serum (Example 4). The format is cell-based. Particulars: read-out: GAL4-chimera (rat) EC50 (μM) hPPARδ. As to the method: Assays were performed in triplicate for GAL4-chimeras. Experiments were repeated at least three times.
The EC50 were calculated as previously described.
The transactivation activities of the compound I.1 and GW501516 are measured in rat and mouse transactivation assays at 10% and 0.1% serum (Tables 11 and 12).

In the next test the target is T2, rat PPARα (Rattus norvegicus, UniProt P37230).
T2 construct: expressed in transfected cells; host or cells: CV-1
T2 sequence (P37230 239-466 limits assumed): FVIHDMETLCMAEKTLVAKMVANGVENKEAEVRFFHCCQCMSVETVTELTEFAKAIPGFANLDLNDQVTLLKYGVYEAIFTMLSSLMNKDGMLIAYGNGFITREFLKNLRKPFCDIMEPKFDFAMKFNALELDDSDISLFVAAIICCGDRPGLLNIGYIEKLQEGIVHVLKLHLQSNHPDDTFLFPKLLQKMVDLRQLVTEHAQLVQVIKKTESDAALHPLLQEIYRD
Described as above. The format is cell-based. To be noted: read-out: GAL4-chimera (rat) EC50 (μM) hPPARα.

A short description of test [1]: Euglycemic-hyperinsulinemic 2 steps clamp with 3H-glucose after 5 weeks of treatment in WD fed rats. The format is in vivo, rat. As to the method: After 4 weeks of treatment, a catheter was implanted into the femoral vein under isoflurane anaesthesia and a period of 5-6 days was respected for recovery. […] The morning of the clamp procedure, rats were treated and fasted for 6 hours prior to tracer, glucose and insulin infusions. The beginning of the clamp procedure was performed in the middle of the dark cycle.
The euglycemic hyperinsulinemic 2 steps insulin clamp was performed using 0.2 U/kg/h and 0.8 U/kg/h insulin infusion associated with 3H-glucose infusion. We then assessed:
During the clamp procedure, a bolus (30 μCi) of D-[3-3H]glucose was first injected followed by 4 μCi/min/kg infusion rate during all the experiment to ensure a detectable plasma D[3-3H]glucose enrichment. A bolus of insulin (100 mU) was first injected, and insulin was then infused at a rate of 0.2 U/kg/h for the first 2 hours and 0.8 U/kg/h from 120 minutes to 210 minutes.
Throughout the infusion, glycaemia was assessed with a blood glucose meter from the tip of the tail vein when needed. Euglycemia was maintained by periodically (every 10 minutes) adjusting a variable infusion of 30% glucose. Plasma glucose concentrations and D-[3-3H]glucose specific activity were determined during stable phase in 10 μl of blood sampled from the tip of the tail vein every 20 minutes from 60 to 120 minutes during the first step and from 150 to 210 minutes during the second step.
For glucose turnover measurements, D-[3-3H]glucose enrichments were determined from total blood after deproteinization by a Zn(OH)2 precipitate. Briefly, an aliquot of the supernatant was evaporated to dryness to determine the radioactivity corresponding to D-3-3H. In a second aliquot of the same supernatant, glucose concentration was assessed by the glucose oxidase method (Biomérieux, France).
Calculations for glucose turnover measurements were made from parameters obtained during the infusions in steady-state condition ([…]). Briefly, the D-[3-3H]glucose specific activity was calculated by dividing the D-[3-3H]glucose enrichment by the plasma glucose concentration. The whole body glucose turnover rate was calculated by dividing the rate of D[3-3H]glucose by the D-[3-3H]glucose plasma specific activity. For each rat, the mean values were calculated and averaged with values from rats of the same group. The whole body glycolysis rate was measured by assessing the amount of tritiated water accumulated in the blood during the 3H-glucose infusion and the whole body glycogen synthesis rate was calculated by the difference between the whole body glucose turnover and the whole body glycolysis rate.

The nature of test [2]: Oral glucose tolerance test after 3 weeks of treatment in WD fed rats. To be noted: 6 h fasted, oral glucose 2.5 g/kg after 3 weeks. The format is in vivo, rat.
Another test has as its target T3, mouse PPARγ (Mus musculus, UniProt P37238).
T3 construct: amino acids 204-505 for m and mm from PPARγ; expressed in transfected cells; host or cells: CV-1
T3 sequence (P37238 204-505): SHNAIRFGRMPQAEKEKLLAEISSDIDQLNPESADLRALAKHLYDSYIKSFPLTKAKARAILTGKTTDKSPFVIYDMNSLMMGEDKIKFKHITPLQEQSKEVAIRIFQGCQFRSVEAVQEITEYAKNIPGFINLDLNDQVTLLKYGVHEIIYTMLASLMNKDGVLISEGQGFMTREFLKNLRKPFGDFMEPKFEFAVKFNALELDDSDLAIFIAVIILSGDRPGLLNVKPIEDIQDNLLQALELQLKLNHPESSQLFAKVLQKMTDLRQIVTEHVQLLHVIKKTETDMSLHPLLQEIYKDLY
The test can be described thus: GAL4-PPAR chimera transactivation assay in CV-1 cells at 10% or 0.1% serum (Example 4). To be noted: read-out: GAL4-chimera (mouse) EC50 (μM) hPPARγ. The format is cell-based.

The subject of a further test is TNF-α. The experiment in a line: TNF-α content in liver and epididymal white adipose tissue after 5 weeks of treatment in WD fed rats (ELISA). To be noted: metformin 50, GW501516 10, compound I.1 10 mg/kg (alone or +metformin 50 mg/kg). The format is in vivo, rat. As to the method: At the end of the clamp procedure (9.5 hours fasting), perirenal, retroperitoneal, epididymal and inguinal fat pads and liver weights were recorded. Blood was collected from cardiac puncture and plasmas were stored at −80° C. for further assays if needed (depending on the radioactive state of samples). Liver triglyceride content was assessed (enzymatic-colorimetric method) as well as liver and adipose tissue TNF-α content (ELISA method).
On the technique in general: ELISA stands for enzyme-linked immunosorbent assay.

Entries after “also recorded” stand apart in the source; their conditions may differ. Read-outs that look alike come from different tables or passages of the source.

For the compound `Cc1cc(C(=O)CCc2sc(-c3ccc(C(F)(F)F)cc3)nc2C(C)C)ccc1OCC(=O)O` [compound I.1, 4-[3-[4-Isopropyl-2-[4-(trifluoromethyl)phenyl]-5-thiazolyl]propionyl]-2-methylphenoxyacetic acid], the EC50 (as a rule, the concentration giving half of the maximal effect) is 0.118 ± 0.031 µM at rat PPARδ (0.1% serum); 0.692 ± 0.177 µM on rat PPARδ (10% serum); > 10 µM on rat PPARα (0.1% serum); > 10 µM on rat PPARα (10% serum); > 10 µM on mouse PPARγ (0.1% serum); > 10 µM on mouse PPARγ (10% serum). Also, the “Insulin resistance / insulin sensitizing effect (overall)” value in test [1] (WD fed rats, after 5 weeks, compound I.1 dose not specified (3 and 10 mg/kg groups), pioglitazone 10, metformin 50 mg/kg) was “improved insulin resistance in a lesser extent than pioglitazone and metformin, but was more effective than GW501516; also recorded: insulin sensitizing effect, less marked than metformin”. Moreover, in test [1] (WD fed rats, clamp after 5 weeks, metformin 50 mg/kg, compound I.1 dose not specified, alone or associated), the “Whole body glucose oxidation” value is reported as “tended to increase”. Besides, in test [1] (clamp 0.2 U/kg/h insulin, after 5 weeks, compound I.1 3 mg/kg), the “Increase of GIR (glucose infusion rate) during the first step” value turned out to be 105%. In addition, the “Decrease of HGP (hepatic glucose production)” value in test [1] (clamp 0.2 U/kg/h insulin, compound I.1 3 mg/kg) is 22%. The same compound registered an Increase of glycolysis in test [1] (clamp 0.8 U/kg/h insulin, metformin 50, GW501516 10, compound I.1 10 mg/kg (alone or +metformin 50 mg/kg)) of 42%. The “Glucose tolerance (OGTT, AUC, glycemia variation)” value in test [2] (compound I.1 3 mg/kg) is reported as “slight tendency to improve glucose tolerance”; in test [2] (pioglitazone 10, metformin 50, GW501516 10, compound I.1 10 mg/kg) it was “significantly improved glucose tolerance”. In the test on TNF-α, the “Decrease of TNF-α levels in epididymal white adipose tissues” value is on record as 51%.

These data come from US20110092517A1, “Use of PPAR Delta Ligands for the Treatment or Prevention of Inflammation or Energy Metabolism/Production Related Diseases” (Cerenis Therapeutics S.A. & Nippon Chemiphar Co., Ltd., priority 2009, published 2011).
